Measured values: patent publication US6660742B2, “Compositions and methods of the use thereof achiral analogues of CC-1065 and the duocarmycins” (priority 2000, dated 2003)
“And” between values parts separate entries of the source, which are not always exact repeats. Equal entries are not always repeated. Where two headings read alike, the source gives them in different places.

What was measured:
HOP-62 = assay: NCI screen, HOP-62 (Non-Small Cell Lung Cancer)
Description: (§1) The compounds of this invention were also tested against the panel of 60 human cancer cell lines at the National Cancer Institute, Bethesda, Md. […] The cytrotoxicity studies were conducted using a 48 hour exposure, and measuring the optical density of sulforhodamide B-derived color.

SK-OV-3 = assay: NCI screen, SK-OV-3 (Ovarian Cancer)
Description: as §1

UACC-257 = assay: NCI screen, UACC-257 (Melanoma)
Description: as §1

SW-620 = assay: NCI screen, SW-620 (Colon Cancer); type: cell-based, human
Description: as §1

CAKI-1 = assay: NCI screen, CAKI-1 (Renal Cancer)
Description: as §1

[1] = tested on: panel of 60 human cancer cell lines; assay: NCI in-vitro cytotoxicity screen, whole panel; type: cell-based
IGROV1 = assay: NCI screen, IGROV1 (Ovarian Cancer); type: cell-based, human
Description: as §1

M14 = assay: NCI screen, M14 (Melanoma)
Description: as §1

HT29 = assay: NCI screen, HT29 (Colon Cancer)
Description: as §1

SK-MEL-5 = assay: NCI screen, SK-MEL-5 (Melanoma)
Description: as §1

SK-MEL-2 = assay: NCI screen, SK-MEL-2 (Melanoma)
Description: as §1

BT-549 = assay: NCI screen, BT-549 (Breast Cancer)
Description: (§2) The compounds of this invention were also tested against the panel of 60 human cancer cell lines at the National Cancer Institute, Bethesda, Md. (44). The cytrotoxicity studies were conducted using a 48 hour exposure, and measuring the optical density of sulforhodamide B-derived color.

NCI-H522 = assay: NCI screen, NCI-H522 (Non-Small Cell Lung Cancer)
Description: as §1

HS 578T = assay: NCI screen, HS 578T (Breast Cancer)
Description: as §2

MCF7 = assay: NCI screen, MCF7 (Breast Cancer)
Description: as §1

SF-268 = assay: NCI screen, SF-268 (CNS Cancer)
Description: as §2

MOLT-4 = assay: NCI screen, MOLT-4 (Leukemia)
Description: as §1

HCT-116 = assay: NCI screen, HCT-116 (Colon Cancer)
Description: as §1

NCI-H23 = assay: NCI screen, NCI-H23 (Non-Small Cell Lung Cancer)
Description: as §1

HCC-2998 = assay: NCI screen, HCC-2998 (Colon Cancer)
Description: as §1

ACHN = type: cell-based, human

O=C(Nc1cc(O)ccc1CCCl)c1cc2cc(NC(=O)c3cc4ccccc4o3)ccc2[nH]1 [Compound 1, 4-(2-Chloroethyl)-3-[5-(5-benzofuran-2-carboxamido)indole-2-carboxamido]phenol]
GI50 (HOP-62): 453 nM
TGI (HOP-62): 3.07E−06 Molar
Percent Growth (HOP-62; Log10 Concentration −4.0): −98%
GI50 (SK-OV-3): 2930 nM
TGI (SK-OV-3): 7.64E−06 Molar
Percent Growth (SK-OV-3; Log10 Concentration −4.0): −99%
Percent Growth (SK-OV-3; Log10 Concentration −7.0): 102%
GI50 (UACC-257): 1880 nM
TGI (UACC-257): 3.40E−06 Molar
Percent Growth (UACC-257; Log10 Concentration −4.0): −97%
Percent Growth (UACC-257; Log10 Concentration −7.0): 104%
Percent Growth (UACC-257; Log10 Concentration −8.0): 102%
GI50 (SW-620): 2010 nM
TGI (SW-620): 8.19E−06 Molar
Percent Growth (SW-620; Log10 Concentration −4.0): −66%
Percent Growth (SW-620; Log10 Concentration −8.0): 96%
Percent Growth (CAKI-1): 87% and 82%
GI50 (CAKI-1; CAKI-1): 2300 nM
TGI (CAKI-1; CAKI-1): 7.19E−06 Molar
Percent Growth (CAKI-1; CAKI-1, Log10 Concentration −4.0): −95%
Percent Growth (CAKI-1; CAKI-1, Log10 Concentration −5.0): −14%
Percent Growth (CAKI-1; CAKI-1, Log10 Concentration −8.0): 95%
range of activity ([1]; 48 hour exposure): micromolar range
activity against leukemia cells ([1]; leukemia cells): none of these compounds showed much activity
activity against melanoma cells ([1]; melanoma cells): active
activity against solid tumors cells ([1]; solid tumors cells): strong activity
GI50 (A549/ATCC): 1980 nM
TGI (A549/ATCC): 6.58E−06 Molar
Percent Growth (A549/ATCC; Log10 Concentration −4.0): −100%
Percent Growth (A549/ATCC; Log10 Concentration −6.0): 78%
Percent Growth (A549/ATCC; Log10 Concentration −8.0): 96%
Percent Growth (IGROV1): −65%
GI50 (IGROV1; IGROV1): 1500 nM
TGI (IGROV1; IGROV1): 3.41E−06 Molar
Percent Growth (IGROV1; IGROV1, Log10 Concentration −4.0): −94%
Percent Growth (IGROV1; IGROV1, Log10 Concentration −6.0): 75%
Percent Growth (IGROV1; IGROV1, Log10 Concentration −7.0): 98%
Percent Growth (IGROV1; IGROV1, Log10 Concentration −8.0): 93%
Percent Growth (M14): −75%
GI50 (M14; M14): 1490 nM
TGI (M14; M14): 3.19E−06 Molar
Percent Growth (M14; M14, Log10 Concentration −4.0): −99%
Percent Growth (M14; M14, Log10 Concentration −6.0): 76%
Percent Growth (M14; M14, Log10 Concentration −7.0): 91%
Percent Growth (M14; M14, Log10 Concentration −8.0): 93%
GI50 (HT29): 2290 nM
TGI (HT29): 1.15E−05 Molar
Percent Growth (HT29; Log10 Concentration −4.0): −51%
Percent Growth (HT29; Log10 Concentration −8.0): 96%
GI50 (SK-MEL-5): 1730 nM
TGI (SK-MEL-5): 3.34E−06 Molar
Percent Growth (SK-MEL-5; Log10 Concentration −4.0): −97%
Percent Growth (SK-MEL-5; Log10 Concentration −6.0): 92%
Percent Growth (SK-MEL-5; Log10 Concentration −7.0): 104%
GI50 (SK-MEL-2): 1320 nM
TGI (SK-MEL-2): 2.67E−06 Molar
Percent Growth (SK-MEL-2; Log10 Concentration −4.0): −91%
Percent Growth (SK-MEL-2; Log10 Concentration −7.0): 101%
Percent Growth (BT-549): 110%
GI50 (BT-549; BT-549): 3600 nM
TGI (BT-549; BT-549): 2.05E−05 Molar
Percent Growth (BT-549; BT-549, Log10 Concentration −4.0): −20%
Percent Growth (BT-549; BT-549, Log10 Concentration −5.0): 9%
Percent Growth (BT-549; BT-549, Log10 Concentration −6.0): 101%
Percent Growth (BT-549; BT-549, Log10 Concentration −7.0): 103%
GI50 (NCI-H522): 933 nM
TGI (NCI-H522): 3.00E−06 Molar
Percent Growth (NCI-H522; Log10 Concentration −4.0): −80%
Percent Growth (NCI-H522; Log10 Concentration −7.0): 99%
Percent Growth (NCI-H522; Log10 Concentration −8.0): 98%
Percent Growth (HS 578T): 89% and 77%
GI50 (HS 578T; HS 578T): 11800 nM
TGI (HS 578T; HS 578T): 3.96E−05 Molar
Percent Growth (HS 578T; HS 578T, Log10 Concentration −4.0): −38%
Percent Growth (HS 578T; HS 578T, Log10 Concentration −5.0): 57%
Percent Growth (HS 578T; HS 578T, Log10 Concentration −7.0): 92%
CC50 (RPMI-8226): > 100000 nM
GI50 (RPMI-8226): 1860 nM
Percent Growth (RPMI-8226): −41%
TGI (RPMI-8226): 5.59E−06 Molar
GI50 (MCF7): 1030 nM
TGI (MCF7): 2.27E−06 Molar
Percent Growth (MCF7; Log10 Concentration −4.0): −100%
Percent Growth (MCF7; Log10 Concentration −8.0): 111%
Percent Growth (SF-268): 68% and 70% and 88%
GI50 (SF-268; SF-268): 13400 nM
TGI (SF-268; SF-268): 2.78E−05 Molar
Percent Growth (SF-268; SF-268, Log10 Concentration −4.0): −88%
Percent Growth (SF-268; SF-268, Log10 Concentration −7.0): 88%
GI50 (MOLT-4): 1140 nM
Percent Growth (MOLT-4; Log10 Concentration −4.0): 4%
Percent Growth (HCT-116): 81% and 99%
GI50 (HCT-116; HCT-116): 1940 nM
TGI (HCT-116; HCT-116): 5.73E−06 Molar
Percent Growth (HCT-116; HCT-116, Log10 Concentration −4.0): −89%
Percent Growth (HCT-116; HCT-116, Log10 Concentration −5.0): −26%
Percent Growth (HCT-116; HCT-116, Log10 Concentration −7.0): 95%
GI50 (NCI-H23): 1670 nM
TGI (NCI-H23): 3.38E−06 Molar
Percent Growth (NCI-H23; Log10 Concentration −4.0): −61%
GI50 (HCC-2998): 1760 nM
TGI (HCC-2998): 3.56E−06 Molar
Percent Growth (HCC-2998; Log10 Concentration −4.0): −97%
Percent Growth (HCC-2998; Log10 Concentration −7.0): 97%
Percent Growth (HCC-2998; Log10 Concentration −8.0): 96%
GI50 (ACHN): 1530 nM
TGI (ACHN): 5.55E−06 Molar
